From patent US20100069632A1, “SALTS OF PYRROLOPYRIMIDINONE DERIVATIVES AND PROCESS FOR PREPARING THE SAME” (SK CHEMICALS CO., LTD, priority 2006, published 2010)
Where a name gives a salt, the structure may show the parent alone.

Key:
[1] = Water and atmospheric (storage) stability: total impurities by liquid chromatography after storage; assay type: physicochemical; conditions: for Storage stability compared with the SK-3530 dihydrochloride salt: summary of Tables 1 to 3
Procedure: This test is for confirming the storage stability of SK-3530 salt.
A sufficient stability is required to process a drug into a particular medication form. For instance, preparation into tablet or capsule requires atmospheric stability and preparation into injection may require water stability.
The following Table 1 (25° C., 75% humidity), Table 2 (40° C., 60% humidity) and Table 3 (50° C., 75% humidity) show the content of total impurities measured by liquid chromatography after storing dihydrochloride (2HCl), gentisate, maleate, citrate, fumarate and hemitartrate salts of SK-3530 for 1 week and 3 weeks.

Hygroscopicity = assay type: physicochemical; conditions: statement in words, no test described
[2] = Photostability test (UV and visible light), impurity content and color change; assay type: physicochemical; conditions: for Color change, Initial / Impurity content (%), Initial: photostability test; for Photostability against UV and visible light compared with the SK-3530 dihydrochloride salt: summary of Tables 4 and 5; for Color change, UV / Impurity content (%), UV: total UV radiation 200 W·h/m^2; for Color change, UV / Impurity content (%), UV / Color change, Visible / Impurity content (%), Visible: 25° C., 60% humidity; for Impurity content (%), UV / Impurity content (%), Visible: Petri dish; for Color change, Visible / Impurity content (%), Visible: total visible light radiation 1080 klux/m^2h
Procedure: The following Table 4 and Table 5 show the photostability test result for dihydrochloride salt (2HCl), gentisate, maleate, citrate, fumarate and hemitartrate salts of SK-3530. The total ultraviolet (UV) radiation was 200 W·h/m^2 and the total visible light radiation was 1080 klux/m^2h. Each salt was kept on a Petri dish under the condition of 25° C. and 60% humidity.

[3] = Thermal stability test at 105° C., impurity content and color change; assay type: physicochemical; conditions: for Impurity content (%), 3 hours / Color change, 3 hours / Impurity content (%), 48 hours / Color change, 48 hours: dryer at 105° C.; for Color change, 3 hours / Color change, 48 hours: macroscopic observation; for Thermal stability compared with the SK-3530 dihydrochloride salt: summary of Tables 6 and 7; for Color change, Initial / Impurity content (%), Initial: thermal stability test
Procedure: The following Table 6 and Table 7 show the thermal stability test result for dihydrochloride salt (2HCl), gentisate, maleate, citrate, fumarate and hemitartrate salts of SK-3530. Each salt was placed on a Petri dish and kept in a dryer at 105° C. Following macroscopic observation at 3 hours and 48 hours later, the content of impurities was measured with liquid chromatography.

PDE-5 = PDE-5 (Homo sapiens, UniProt O76074); conditions: statement in words; cited from earlier work
Solubility = assay type: physicochemical; conditions: statement in words, no test described

Impurity content (%) at 25° C., 75% humidity, 1 week [1] | Impurity content (%) at 25° C., 75% humidity, 3 weeks [1] | Impurity content (%) at 25° C., 75% humidity, Initial [1] | Impurity content (%) at 40° C., 60% humidity, 1 week [1] | Impurity content (%) at 40° C., 60% humidity, 3 weeks [1] | Impurity content (%) at 40° C., 60% humidity, Initial [1] | Impurity content (%) at 50° C., 75% humidity, 1 week [1] | Impurity content (%) at 50° C., 75% humidity, 3 weeks [1] | Impurity content (%) at 50° C., 75% humidity, Initial [1] | Hygroscopicity (Hygroscopicity) | Color change, Initial [2] | Impurity content (%), Initial [2] | Color change, UV [2] | Impurity content (%), UV [2] | Color change, Visible [2] | Impurity content (%), Visible [2] | Impurity content (%), 3 hours [3] | Color change, 3 hours [3] | Impurity content (%), 48 hours [3] | Color change, 48 hours [3] | SMILES | further results
0.09% | 0.13% | 0.07% | 0.10% | 0.14% | 0.07% | 0.11% | 0.13% | 0.07% | non-hygroscopic | White | 0.07% | White | 0.52% | White | 0.21% | 0.14% | White | 0.70% | White | CCCOc1ccc(S(=O)(=O)N2CCN(CCO)CC2)cc1-c1nc2c(CCC)cn(CC)c2c(=O)[nH]1 [SK-3530 hemitartrate salt] | Storage stability compared with the SK-3530 dihydrochloride salt [1]: much superior; Photostability against UV and visible light compared with the SK-3530 dihydrochloride salt [2]: much superior; Thermal stability compared with the SK-3530 dihydrochloride salt [3]: much superior; Color change, Initial [3]: White; Impurity content (%), Initial [3]: 0.07%
0.09% | 0.12% | 0.09% | 0.10% | 0.10% | 0.09% | 0.09% | 0.10% | 0.09% | non-hygroscopic | White | 0.09% | Pale yellow | 0.36% | Pale yellow | 0.17% | 0.09% | White | 0.13% | White | CCCOc1ccc(S(=O)(=O)N2CCN(CCO)CC2)cc1-c1nc2c(CCC)cn(CC)c2c(=O)[nH]1 [SK-3530 gentisate salt] | Storage stability compared with the SK-3530 dihydrochloride salt [1]: much superior; Photostability against UV and visible light compared with the SK-3530 dihydrochloride salt [2]: much superior; Thermal stability compared with the SK-3530 dihydrochloride salt [3]: much superior; Color change, Initial [3]: White; Impurity content (%), Initial [3]: 0.09%
0.12% | 0.12% | 0.12% | 0.12% | 0.12% | 0.12% | 0.15% | 0.19% | 0.12% | non-hygroscopic | White | 0.12% | White | 0.35% | White | 0.14% | 0.15% | White | 0.74% | White | CCCOc1ccc(S(=O)(=O)N2CCN(CCO)CC2)cc1-c1nc2c(CCC)cn(CC)c2c(=O)[nH]1 [SK-3530 maleate salt] | Storage stability compared with the SK-3530 dihydrochloride salt [1]: much superior; Photostability against UV and visible light compared with the SK-3530 dihydrochloride salt [2]: much superior; Thermal stability compared with the SK-3530 dihydrochloride salt [3]: much superior; Color change, Initial [3]: White; Impurity content (%), Initial [3]: 0.12%
 |  |  |  |  |  |  |  |  |  |  |  |  |  |  |  |  |  |  |  | CCCOc1ccc(S(=O)(=O)N2CCN(CCO)CC2)cc1-c1nc2c(CCC)cn(CC)c2c(=O)[nH]1 [SK-3530, 5-ethyl-2-{5-[4-(2-hydroxyethyl)piperazin-1-ylsulfonyl]-2-n-propoxyphenyl}-7-n-propyl-I-3,5-dihydro-4H-pyrrolo[3,2-d]pyrimidin-4-one] | Selectivity for PDE-5 over other PDEs (PDE-5): excellent selective inhibitor
0.24% | 0.31% | 0.20% | 0.24% | 0.38% | 0.20% | 0.27% | 0.42% | 0.20% | hygroscopic | White | 0.20% | Brown | 5.92% | Yellow | 1.37% | 3.06% | White | 14.37% | Yellow | CCCOc1ccc(S(=O)(=O)N2CCN(CCO)CC2)cc1-c1nc2c(CCC)cn(CC)c2c(=O)[nH]1.Cl.Cl [SK-3530 dihydrochloride salt, reference compound] | Solubility (Solubility): good solubility; Color change, Initial [3]: White; Impurity content (%), Initial [3]: 0.20%
0.02% | 0.03% | 0.02% | 0.02% | 0.05% | 0.02% | 0.02% | 0.05% | 0.02% | non-hygroscopic | White | 0.02% | Pale yellow | 0.08% | White | 0.07% | 0.11% | White | 0.61% | White | CCCOc1ccc(S(=O)(=O)N2CCN(CCO)CC2)cc1-c1nc2c(CCC)cn(CC)c2c(=O)[nH]1 [SK-3530 fumarate salt] | Storage stability compared with the SK-3530 dihydrochloride salt [1]: much superior; Photostability against UV and visible light compared with the SK-3530 dihydrochloride salt [2]: much superior; Thermal stability compared with the SK-3530 dihydrochloride salt [3]: much superior; Color change, Initial [3]: White; Impurity content (%), Initial [3]: 0.02%
0.15% | 0.15% | 0.12% | 0.13% | 0.14% | 0.12% | 0.14% | 0.14% | 0.12% | non-hygroscopic | White | 0.12% | White | 0.37% | White | 0.14% | 0.30% | White | 1.81% | White | CCCOc1ccc(S(=O)(=O)N2CCN(CCO)CC2)cc1-c1nc2c(CCC)cn(CC)c2c(=O)[nH]1 [SK-3530 citrate salt] | Storage stability compared with the SK-3530 dihydrochloride salt [1]: much superior; Photostability against UV and visible light compared with the SK-3530 dihydrochloride salt [2]: much superior; Thermal stability compared with the SK-3530 dihydrochloride salt [3]: much superior; Color change, Initial [3]: White; Impurity content (%), Initial [3]: 0.12%
